This note sets out measurements from ChEMBL document CHEMBL1201862, “PubChem BioAssay data set” (2004).

Some test systems named below: KM12; SK-MEL-5; DMS-114; SW-620; HCC 2998; Malme-3M; NCI-H522; HOP-18; EKVX; SR; HOP-92; M19-MEL; NCI/ADR-RES.
What all share (test): NCI-60 cell line screen, 48 h

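Five concentrations, 48 hours, 96-well plates. GI50: concentration for 50% inhibition of growth.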 The source made the active and inactive calls. No stated cut-off is given here; in the data, active = GI50 up to about 1.1 µM and inactive = higher.

As for `CCCCCCCCCCCCNC(=S)OC`, the GI50 in the experiment on KM12 was 15.4 µM (inactive); in the experiment on SK-MEL-5 it was 17.3 µM (inactive); in the experiment with DMS-114 it was 4.63 µM (inactive); in the experiment with SW-620, 16.6 µM (inactive); in the experiment on HCC 2998, 18.2 µM (inactive); with Malme-3M it was 15.5 µM (inactive). The GI50 with NCI-H522 was 13.2 µM (inactive); in the experiment with HOP-18, 17 µM (inactive); in the experiment on EKVX, 20.7 µM (inactive); in the experiment on SR, 3.01 µM (inactive); in the experiment with HOP-92, 7.08 µM (inactive); with M19-MEL it was 17.9 µM (inactive).

Consider `CC1(CO)OC(n2cnc3c(N)ncnc32)C(O)C1O` (configuration not stated), for which the GI50 in the experiment on KM12, in the experiment on SK-MEL-5, in the experiment with DMS-114, with SW-620, in the experiment with HCC 2998 and in the experiment with Malme-3M was > 100 µM (inactive) in each case. The GI50 in the experiment on NCI-H522, with HOP-18, with SR, with HOP-92 and with M19-MEL was > 100 µM (inactive) in each case.

With `CCN(CC)CCn1nc2c3c(c(NCCN)ccc31)Sc1cc(O)ccc1-2`, the GI50 with KM12 is 0.615 µM (active); in the experiment on SK-MEL-5, 0.733 µM (active); with DMS-114 it was 0.31 µM (active); in the experiment with SW-620 it was 0.351 µM (active); in the experiment on Malme-3M, 1.07 µM (active); with NCI-H522, 0.175 µM (active). The GI50 in the experiment with HOP-18 is 1.62 µM (inactive); with EKVX it was 1.4 µM (inactive); in the experiment with SR, 0.201 µM (active); with HOP-92, 0.94 µM (active); in the experiment with M19-MEL, 0.347 µM (active).

As to `COc1ccc(C(=O)c2c3cc(OC)c(OC)c(OC)c3cc[n+]2C)cc1`, the GI50 with KM12 was 30.4 µM (inactive); in the experiment on SK-MEL-5, 17.5 µM (inactive); in the experiment with DMS-114, 23.7 µM (inactive); in the experiment on SW-620, 34.4 µM (inactive); in the experiment with HCC 2998, 50.2 µM (inactive); in the experiment on Malme-3M it was 35 µM (inactive). Besides, the GI50 is 19.2 µM (inactive) in the experiment on NCI-H522; 20.6 µM (inactive) in the experiment with HOP-18; 55.3 µM (inactive) in the experiment with EKVX; 14.8 µM (inactive) with SR; 24.1 µM (inactive) with M19-MEL.

Consider `Nc1ccc2cc(S(=O)(=O)O)cc(O)c2c1/N=N/c1ccc(NC(=O)Nc2ccc(/N=N/c3c(N)ccc4cc(S(=O)(=O)O)cc(O)c34)c(S(=O)(=O)O)c2)cc1S(=O)(=O)O`, for which the GI50 in the experiment with KM12 was > 100 µM (inactive); in the experiment with SK-MEL-5 it was > 100 µM (inactive); with DMS-114, 98.6 µM (inactive); with SW-620, > 100 µM (inactive); with HCC 2998, > 100 µM (inactive); in the experiment with Malme-3M, > 100 µM (inactive). Also, the GI50 is > 100 µM (inactive) in the experiment on NCI-H522; > 100 µM (inactive) in the experiment on NCI/ADR-RES; > 100 µM (inactive) in the experiment with HOP-18; > 100 µM (inactive) in the experiment with EKVX; > 54.8 µM (inactive) in the experiment with HOP-92; > 100 µM (inactive) in the experiment with M19-MEL.

As to `COC(=O)C1CCC(=O)C(Sc2ccccc2)C1` (configuration not stated), the GI50 in the experiment on KM12 was > 100 µM (inactive); in the experiment on SK-MEL-5, > 100 µM (inactive); in the experiment with DMS-114 it was 68.1 µM (inactive); with SW-620 it was > 100 µM (inactive); with NCI-H522 it was 52.7 µM (inactive); in the experiment with HOP-18, > 100 µM (inactive). Moreover, the GI50 was > 100 µM (inactive) in the experiment with EKVX, 50.1 µM (inactive) in the experiment with HOP-92 and 62.1 µM (inactive) in the experiment on M19-MEL.

Take `Cc1ccccc1NC(=O)CSc1nnc(Cc2ccccc2)o1`: the GI50 in the experiment on KM12, with SK-MEL-5, with DMS-114, with HCC 2998, in the experiment with Malme-3M and in the experiment on NCI-H522 was > 100 µM (inactive) in each case. Moreover, the GI50 in the experiment on HOP-18 and in the experiment on M19-MEL was > 100 µM (inactive) throughout.

For `O=c1[nH]cnc2c(COCCCO)c[nH]c12`, the GI50 in the experiment on KM12, in the experiment with SK-MEL-5, in the experiment with DMS-114, in the experiment on SW-620, in the experiment with Malme-3M and in the experiment on NCI-H522 was > 100 µM (inactive) in each case. In addition, the GI50 with HOP-18, in the experiment with EKVX, with SR, in the experiment with HOP-92 and with M19-MEL was > 100 µM (inactive) each time.

Turning to `Cn1nc(-c2ccccc2)c(C(=O)/C=C/c2ccccc2)c(N2CCCC2)c1=O`, the GI50 was 15.3 µM (inactive) in the experiment with SK-MEL-5; 11.4 µM (inactive) in the experiment on DMS-114; 17.9 µM (inactive) in the experiment on SW-620; 4.83 µM (inactive) with NCI-H522; 16.4 µM (inactive) with HOP-18; 20.4 µM (inactive) with EKVX. The results for the GI50 with HOP-92 and with M19-MEL were 1.64 µM (inactive) and 16.6 µM (inactive), respectively.

For the compound `CCCCCCCCCCC(C)CCCCCCC(=O)OCC(COP(=O)([O-])OCC[N+](C)(C)C)OC(=O)CCCCCCC(C)CCCCCCCCCC` (configuration not stated), the GI50 in the experiment with KM12, with SK-MEL-5, in the experiment on DMS-114, in the experiment with SW-620, with HCC 2998 and in the experiment on Malme-3M was > 100 µM (inactive) each time. In addition, the GI50 in the experiment on NCI-H522, in the experiment with HOP-18, in the experiment on EKVX, with SR, with HOP-92 and with M19-MEL was > 100 µM (inactive) in each case.

Consider `COc1ccc2c(c1)[n+]([O-])c(C(C)=O)c(C)[n+]2[O-]`, for which the GI50 in the experiment on KM12, in the experiment with SK-MEL-5, with DMS-114, in the experiment with SW-620, in the experiment on HCC 2998 and in the experiment with Malme-3M was > 100 µM (inactive) in each case. In addition, the GI50 with NCI-H522, in the experiment on HOP-18, in the experiment on EKVX, with HOP-92 and in the experiment with M19-MEL was > 100 µM (inactive) throughout.

Take `c1ccc(C2N3CCCCC3[C@@H]3c4[nH]c5ccccc5c4CCN23)cc1` (some centres not stated): the GI50 with SK-MEL-5 was 67.3 µM (inactive); with DMS-114 it was 38.7 µM (inactive); in the experiment on SW-620, 50.4 µM (inactive); with HCC 2998 it was 98.9 µM (inactive); with Malme-3M it was 27 µM (inactive); in the experiment with HOP-18, > 100 µM (inactive). In addition, the GI50 was > 100 µM (inactive) in the experiment on EKVX, > 100 µM (inactive) in the experiment with HOP-92 and 58.2 µM (inactive) in the experiment on M19-MEL.

Take `Clc1cc(Cl)cc(C2SCc3nc4ccccc4n32)c1` (configuration not stated): the GI50 is 13.6 µM (inactive) in the experiment with KM12; 12.7 µM (inactive) in the experiment on SK-MEL-5; 13.6 µM (inactive) in the experiment on DMS-114; 11 µM (inactive) with SW-620; > 10 µM (inactive) with HCC 2998; 15.8 µM (inactive) with Malme-3M. Also, the GI50 was 14.3 µM (inactive) with NCI-H522; 28.4 µM (inactive) in the experiment with HOP-18; 22.6 µM (inactive) in the experiment with EKVX; 17.2 µM (inactive) in the experiment with SR; 14.4 µM (inactive) in the experiment on HOP-92.

In the case of `CN(c1ccc(C(=O)c2ccc(N(C)S(C)(=O)=O)cc2)cc1)S(C)(=O)=O`, the GI50 is > 100 µM (inactive) in the experiment with KM12; 27.9 µM (inactive) with SK-MEL-5; 14.1 µM (inactive) in the experiment with DMS-114; > 100 µM (inactive) in the experiment on SW-620; > 100 µM (inactive) with Malme-3M; 94.2 µM (inactive) in the experiment on NCI-H522. Also, the GI50 in the experiment with EKVX is 86.5 µM (inactive); in the experiment on SR, 59.8 µM (inactive); in the experiment on HOP-92 it was > 100 µM (inactive); with M19-MEL it was > 100 µM (inactive).

Take `Clc1ccc(OC2CCO2)cc1Cl` (configuration not stated): the GI50 in the experiment with KM12 is 76.6 µM (inactive); with SK-MEL-5 it was 62.1 µM (inactive); with DMS-114 it was 34.4 µM (inactive); in the experiment on SW-620, 17.9 µM (inactive); with HCC 2998, > 100 µM (inactive); in the experiment with Malme-3M, > 100 µM (inactive). Also, the GI50 in the experiment on NCI-H522 is 34.3 µM (inactive); in the experiment with HOP-18 it was > 100 µM (inactive); in the experiment with EKVX, > 100 µM (inactive); with HOP-92, 46.3 µM (inactive); in the experiment with M19-MEL it was > 100 µM (inactive).

`COc1cc(=O)oc(/C=C/C=O)c1C`: the GI50 in the experiment on KM12 was 21.9 µM (inactive); in the experiment on SK-MEL-5, 20.6 µM (inactive); in the experiment with DMS-114 it was 12.7 µM (inactive); with SW-620, 19.4 µM (inactive); with HCC 2998 it was 17.9 µM (inactive); with Malme-3M, 21.7 µM (inactive). Moreover, the GI50 in the experiment on NCI-H522 is 19.8 µM (inactive); in the experiment on HOP-18, 18 µM (inactive); with EKVX, 35.7 µM (inactive); in the experiment with SR, 2.79 µM (inactive); in the experiment with HOP-92, 26.9 µM (inactive); in the experiment with M19-MEL it was 18.1 µM (inactive).

`COc1ccc2c(c1)OC[C@@H]1c3cc(O)c(OCc4ccccc4)cc3O[C@H]21`: the GI50 with KM12 was 30.2 µM (inactive); in the experiment on SK-MEL-5, 13.1 µM (inactive); in the experiment on DMS-114 it was 19.5 µM (inactive); in the experiment on SW-620 it was 29.6 µM (inactive); with HCC 2998, 36.2 µM (inactive); in the experiment on Malme-3M it was 28.1 µM (inactive). Besides, the GI50 with NCI-H522 was 13.5 µM (inactive); in the experiment on HOP-18, > 100 µM (inactive); in the experiment with EKVX, 19.4 µM (inactive); in the experiment on HOP-92 it was 14.8 µM (inactive); in the experiment with M19-MEL, 27 µM (inactive).

Regarding `CC1(C)OC2OC(COC(=O)C(c3ccccc3)c3ccccc3)C3OC(C)(C)OC3C2O1` (configuration not stated), the GI50 is 5.87 µM (inactive) with KM12; 7.11 µM (inactive) in the experiment with SK-MEL-5; 22.2 µM (inactive) with DMS-114; 6.87 µM (inactive) with SW-620; > 10 µM (inactive) in the experiment on HCC 2998; 46.8 µM (inactive) with Malme-3M. Further, the GI50 in the experiment with NCI-H522 is 21.6 µM (inactive); with HOP-18, > 10 µM (inactive); in the experiment on EKVX, > 10 µM (inactive); with SR, > 10 µM (inactive); with HOP-92, 61.8 µM (inactive); with M19-MEL it was 66.7 µM (inactive).
